Key:
Format in all cases: biochemical
PKR wt = PKR wt (Homo sapiens, UniProt P30613); experiment: PKR WT Single Point Percent Activation Assay; conditions: compound at 1 μM
Procedure: PKR WT Single Point Percent Activation Assay
(§1) A compound described herein was diluted with DMSO and tested at 1 μM concentration. The enzyme was diluted in 1× Buffer: (100 mM KCl, 50 mM Tris 7.5, 5 mM MgCl2, 1 mM DTT, 0.03% BSA). 2 μL of compound solution was first added into wells, and then 180 μL of enzyme solution was added. Assays were assembled except for ADP, and plates were stored for 60 minutes at RT. 20 μL ADP was added to start the assay and assay output was evaluated using OD340 at SpectraMax. The assay was run at room temperature.
Final Concentration: PKR wt (100 ng/well), Tris pH 7.5 (50 mM), KCl (100 mM), MgCl2 (5 mM), ADP (0.48 mM), PEP (0.15 mM), NADH (180 μM), LDH (0.5 units, Sigma 59023), DTT (1 mM) and BSA (0.03%).

PKR R510Q [1] = biological target: T1, PKR R510Q (Homo sapiens, UniProt P30613, R510Q); experiment: PKR R510Q Single Point Percent Activation Assay; conditions: compound at 1 μM; for activation at 1 µM: read-out: % Act. R510Q
T1 sequence (P30613 whole entry R510Q): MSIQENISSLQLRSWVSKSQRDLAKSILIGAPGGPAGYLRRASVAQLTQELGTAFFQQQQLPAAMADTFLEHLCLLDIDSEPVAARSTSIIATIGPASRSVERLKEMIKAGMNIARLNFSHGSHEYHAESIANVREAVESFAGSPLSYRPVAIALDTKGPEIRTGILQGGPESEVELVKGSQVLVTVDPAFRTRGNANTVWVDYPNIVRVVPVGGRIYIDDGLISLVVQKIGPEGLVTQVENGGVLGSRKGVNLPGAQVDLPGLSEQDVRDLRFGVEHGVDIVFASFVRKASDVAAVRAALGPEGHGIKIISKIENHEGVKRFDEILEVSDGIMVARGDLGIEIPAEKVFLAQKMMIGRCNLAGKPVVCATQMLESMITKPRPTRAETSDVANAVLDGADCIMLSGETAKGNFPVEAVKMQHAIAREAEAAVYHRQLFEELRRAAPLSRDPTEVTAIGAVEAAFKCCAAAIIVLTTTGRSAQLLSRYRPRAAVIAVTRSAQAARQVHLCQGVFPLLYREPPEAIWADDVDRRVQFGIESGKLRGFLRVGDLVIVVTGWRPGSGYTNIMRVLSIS
Procedure: PKR R510Q Single Point Percent Activation Assay
as §1
Final Concentration: PKR R510Q (40 ng/well), Tris pH 7.5 (50 mM), KCl (100 mM), MgCl2 (5 mM), ADP (0.2 mM), PEP (0.11 mM), NADH (180 μM), LDH (0.5 units, Sigma 59023), DTT (1 mM) and BSA (0.03%).

PKR R532W [2] = biological target: T2, PKR R532W (Homo sapiens, UniProt P30613, R532W); experiment: PKR R532W Single Point Percent Activation Assay; conditions: compound at 1 μM; for activation at 1 µM: read-out: % Act. R532W
T2 sequence (P30613 whole entry R532W): as the sequence (P30613 whole entry R510Q) above, with Q510R, R532W counted along it
Procedure: PKR R532W Single Point Percent Activation Assay
as §1
Final Concentration: PKR R532W (100 ng/well), Tris pH 7.5 (50 mM), KCl (100 mM), MgCl2 (5 mM), ADP (0.36 mM), PEP (0.1 mM), NADH (180 μM), LDH (0.5 units, Sigma 59023), DTT (1 mM) and BSA (0.03%).

PKR T384W [3] = biological target: T3, PKR T384W (Homo sapiens, UniProt P30613, T384W); experiment: PKR T384W Single Point Percent Activation Assay; conditions: compound at 1 μM; for activation at 1 µM: read-out: % Act. T384W
T3 sequence (P30613 whole entry T384W): as the sequence (P30613 whole entry R510Q) above, with T384W, Q510R counted along it
Procedure: PKR T384W Single Point Percent Activation Assay
as §1, with “180 μL enzyme solution” for “180 μL of enzyme solution”
Final Concentration: PKR T384W soluble (300 ng/well), Tris pH 7.5 (50 mM), KCl (100 mM), MgCl2 (5 mM), ADP (0.08 mM), PEP (0.23 mM), NADH (180 μM), LDH (0.5 units, Sigma 59023), DTT (1 mM) and BSA (0.03%).

wild type PKR = wild type PKR (Homo sapiens, UniProt P30613); experiment: PKR Mutant Assay (AC50), wild type PKR; conditions: read-out: PKR WT AC50
wild type PKR, sequence (P30613 whole entry): as the sequence (P30613 whole entry R510Q) above, with Q510R counted along it
Procedure: (§2) • PKR or PKR mutant enzyme solution was diluted in assay buffer. 2 μL of test compound was added into wells first, and then 180 μL reaction mix was added. • Reactions mixture with test compound was assembled except for ADP, and plates were stored for 60 minutes at room temperature. • 20 uL ADP was added to start reaction at room temperature and reaction progress was measured as changes in absorbance at 340 nm wavelength at room temperature. Test Compound Preparation: • Test compound stock was made at 100× concentration in 100% DMSO (10 mM) • 1 to 3 dilutions were made for 11 points (i.e. 50 μl of first concentration added to 100 μl 100% DMSO to yield 3.33 mM, 50 μl of this added to 100 μl DMSO to yield 1.11 mM, and so forth) • 1 to 100 dilution into assay (2 μl in 200 μl) yielded starting concentration of 100 μM, decreasing 3 fold for 11 points. Assay Buffer: 100 mM KCl, 50 mM Tris 7.5, 5 mM MgCl2, 1 mM DTT, 0.03% BSA Reaction Mixture: PKR mutant enzyme: 80-400 ng/well; ADP: 0.22-1.65 mM; PEP: 0.1-0.5 mM; NADH: 180 uM; LDH: 0.5 units (Sigma#59023); DTT: 1 mM; BSA: 0.03%.

PKR R510Q [4] = biological target: T1, PKR R510Q; experiment: PKR Mutant Assay (AC50), PKR R510Q
Procedure: as §2

PKR R532W [5] = biological target: T2, PKR R532W; experiment: PKR Mutant Assay (AC50), PKR R532W
Procedure: as §2

PKR T384W [6] = biological target: T3, PKR T384W; experiment: PKR Mutant Assay (AC50), PKR T384W
Procedure: as §2

PKR G332S = PKR G332S (Homo sapiens, UniProt P30613, G332S); experiment: PKR Mutant Assay (AC50), PKR G332S
PKR G332S, sequence (P30613 whole entry G332S): as the sequence (P30613 whole entry R510Q) above, with G332S, Q510R counted along it
Procedure: as §2

PKR G364D = PKR G364D (Homo sapiens, UniProt P30613, G364D); experiment: PKR Mutant Assay (AC50), PKR G364D
PKR G364D, sequence (P30613 whole entry G364D): as the sequence (P30613 whole entry R510Q) above, with G364D, Q510R counted along it
Procedure: as §2

PKR R479H = PKR R479H (Homo sapiens, UniProt P30613, R479H); experiment: PKR Mutant Assay (AC50), PKR R479H
PKR R479H, sequence (P30613 whole entry R479H): as the sequence (P30613 whole entry R510Q) above, with R479H, Q510R counted along it
Procedure: as §2

PKR wt, sequence (P30613 whole entry): as the sequence (P30613 whole entry R510Q) above, with Q510R counted along it

Row | Compound | activation at 1 µM (PKR wt) [%] | activation at 1 µM (PKR R510Q [1]) [%] | activation at 1 µM (PKR R532W [2]) [%] | activation at 1 µM (PKR T384W [3]) [%] | AC50 (wild type PKR) [nM] | AC50 (PKR R510Q [4]) [nM] | AC50 (PKR R532W [5]) [nM] | AC50 (PKR T384W [6]) [nM] | AC50 (PKR G332S) [nM] | AC50 (PKR G364D) [nM] | AC50 (PKR R479H) [nM] | % Act. R532W (PKR R532W [2]) | % Act. WT (PKR wt) | % Act. R510Q (PKR R510Q [1]) | % Act. T384W (PKR T384W [3])
1 | COc1cc(F)c(S(=O)(=O)N2CCN(S(=O)(=O)c3cccc(N)c3)CC2)c(F)c1 | 101 to 500 | 101 to 500 | 101 to 500 | 101 to 500 | – | – | – | – | – | – | – | – | – | – | –
2 | COc1cccc(Cn2ncc3c4sc([S+](C)[O-])cc4n(C)c3c2=O)c1 (centres unmarked) | 1 to 100 | 101 to 500 | 101 to 500 | 1 to 100 | < 100 | < 100 | < 100 | < 100 | < 100 | < 100 | < 100 | – | – | – | –
3 | Nc1cccc(S(=O)(=O)N2CCCN(S(=O)(=O)c3ccc4c(c3)OCCO4)CC2)c1 [drawing 23] | 101 to 500 | 101 to 500 | – | 101 to 500 | – | – | – | – | – | – | – | B (a % activation at 1 μM of from 101 to 500) | – | – | –
4 | O=S(=O)(c1ccc2c(c1)OCCO2)N1CCN(S(=O)(=O)c2c(F)cccc2F)CC1 | 101 to 500 | 101 to 500 | 1 to 100 | 1 to 100 | – | – | – | – | – | – | – | – | – | – | –
5 | Cn1c2cc([S+](C)[O-])sc2c2cnn(Cc3ccccc3F)c(=O)c21 (centres unmarked) | 101 to 500 | 101 to 500 | 101 to 500 | 101 to 500 | 101 to 500 | 101 to 500 | > 500 | > 500 | > 500 | 101 to 500 | 101 to 500 | – | – | – | –
6 | CCCCCn1ncc2c3sc(C)cc3n(C)c2c1=O | 101 to 500 | 101 to 500 | 101 to 500 | 101 to 500 | – | – | – | – | – | – | – | – | – | – | –
7 | Nc1cccc(S(=O)(=O)N2CCN(S(=O)(=O)c3c(F)cccc3F)CC2)c1 | 101 to 500 | 101 to 500 | 101 to 500 | 101 to 500 | – | – | – | – | – | – | – | – | – | – | –
8 | COc1cc(F)c(S(=O)(=O)N2CCCN(S(=O)(=O)c3cccc(N)c3)CC2)c(F)c1 | 101 to 500 | 101 to 500 | 101 to 500 | 101 to 500 | – | – | – | – | – | – | – | – | – | – | –
9 | Nc1cccc(S(=O)(=O)N2CCCN(S(=O)(=O)c3ccc4c(c3)OCCO4)CC2)c1 [drawing 17] | – | – | – | – | – | – | – | – | – | – | – | A (a % activation at 1 μM of from 1 to 100) | B (a % activation at 1 μM of from 101 to 500) | B (a % activation at 1 μM of from 101 to 500) | B (a % activation at 1 μM of from 101 to 500)
10 | O=S(=O)(c1ccc2c(c1)OCCO2)N1CCCN(S(=O)(=O)c2c(F)cccc2F)CC1 | 101 to 500 | 101 to 500 | 101 to 500 | 101 to 500 | – | – | – | – | – | – | – | – | – | – | –
11 | Cn1c2cc([S+](C)[O-])sc2c2cnn(Cc3cccc(O)c3)c(=O)c21 (centres unmarked) | 101 to 500 | 101 to 500 | 101 to 500 | 101 to 500 | < 100 | < 100 | < 100 | < 100 | < 100 | < 100 | < 100 | – | – | – | –
12 | CSc1cc2c(s1)c1cnn(Cc3cccc(O)c3)c(=O)c1n2C | 101 to 500 | > 500 | 101 to 500 | 101 to 500 | < 100 | < 100 | < 100 | < 100 | < 100 | < 100 | < 100 | – | – | – | –
13 | Nc1cccc(S(=O)(=O)N2CCN(S(=O)(=O)c3ccc4c(c3)OCCO4)CC2)c1 | 1 to 100 | 1 to 100 | 101 to 500 | 1 to 100 | – | – | – | – | – | – | – | – | – | – | –
